Each compound was assayed against T1, hSOS1 enzyme / KRAS (G12C), GST-Tag, GDP-bound protein (Homo sapiens, UniProt Q07889) (assay: SOS1-mediated KRAS guanine nucleotide exchange (GEF) assay, HTRF ("On Assay")). Conditions: 1 μM compound.
T1 sequence (Q07889 564-1049 limits assumed): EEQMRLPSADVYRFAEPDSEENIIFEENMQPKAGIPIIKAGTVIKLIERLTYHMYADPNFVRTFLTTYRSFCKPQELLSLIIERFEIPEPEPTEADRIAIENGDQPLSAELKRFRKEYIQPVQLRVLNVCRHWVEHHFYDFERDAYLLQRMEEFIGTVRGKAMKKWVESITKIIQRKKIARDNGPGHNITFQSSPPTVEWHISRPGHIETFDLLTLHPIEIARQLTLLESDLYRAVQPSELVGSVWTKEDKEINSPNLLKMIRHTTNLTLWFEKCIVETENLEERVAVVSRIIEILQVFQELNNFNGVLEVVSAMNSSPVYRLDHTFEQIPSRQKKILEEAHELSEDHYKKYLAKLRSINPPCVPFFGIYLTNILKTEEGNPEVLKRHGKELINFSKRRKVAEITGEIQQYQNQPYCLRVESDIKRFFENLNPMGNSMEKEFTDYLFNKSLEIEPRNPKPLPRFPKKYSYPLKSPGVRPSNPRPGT
Format: biochemical
Summary of the method: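 Compounds were preincubated 10 min at 25 °C with GDP-loaded GST-KRAS G12C and Tb-anti-GST (working solution 100 nM/2 nM) in HEPES pH 7, 5 mM MgCl2. hSOS1 plus DY-647P-labelled GTP (working solution 20 nM/200 nM) was then added for 10 min. HTRF was read at 665/615 nm with 320 nm excitation, and wells lacking SOS1 served as negative control.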

Row | SMILES | inhibition at 1 µM
1 | C[C@@H](Nc1nc(NC(=O)CN)nc2cnc(N3CCCC3)cc12)c1cc(N)cc(C(F)(F)F)c1 [Example 77, (R)-2-amino-N-(4-((1-(3-amino-5-(trifluoromethyl)phenyl)ethyl)amino)-6-(pyrrolidin-1-yl)pyrido[3,4-d]pyrimidin-2-yl)acetamide hydro chloride] | ≥ 50%
2 | CNCCC(=O)Nc1nc(N[C@H](C)c2cc(N)cc(C(F)(F)F)c2)c2cc(N3CCCC3)ncc2n1 [Example 78] | ≥ 50%
3 | CNCCC(=O)Nc1nc(N[C@H](C)c2cc(N)cc(C(F)(F)F)c2)c2cc(N3CCOCC3)ncc2n1 [Example 79, (R)—N-(4-((1-(3-amino-5-(trifluoromethyl)phenyl)ethyl)amino)-6-morpholinopyrido[3,4-d]pyrimidin-2-yl)-3-(methylamino)propanamide] | ≥ 50%
4 | CCN1CCN(c2cnc3nc(Cl)nc(N[C@H](C)c4cc(N)cc(C(F)(F)F)c4)c3c2)CC1 [Example 80, (R)—N-(1-(3-amino-5-(trifluoromethyl)phenyl)ethyl)-2-chloro-6-(4-ethylpiperazin-1-yl)pyrido[2,3-d]pyrimidin-4-amine] | ≥ 50%
5 | CCN1CCN(c2cnc3nc(OC)nc(N[C@H](C)c4cc(N)cc(C(F)(F)F)c4)c3c2)CC1 [Example 81, (R)—N-(1-(3-amino-5-(trifluoromethyl)phenyl)ethyl)-6-(4-ethylpiperazin-1-yl)-2-methoxypyrido[2,3-d]pyrimidin-4-amine] | ≥ 50%
6 | C[C@@H](Nc1nc(Cl)nc2ncc(N3CCN(C)CC3)cc12)c1cc(N)cc(C(F)(F)F)c1 [Example 82, (R)—N-(1-(3-amino-5-(trifluoromethyl)phenyl)ethyl)-2-chloro-6-(4-methylpiperazin-1-yl)pyrido[2,3-d]pyrimidin-4-amine] | ≥ 50%
7 | C[C@@H](Nc1nc(Cl)nc2ncc(N3CCCCC3)cc12)c1cc(N)cc(C(F)(F)F)c1 [Example 83, (R)—N-(1-(3-amino-5-(trifluoromethyl)phenyl)ethyl)-2-chloro-6-(piperidin-1-yl)pyrido[2,3-d]pyrimidin-4-amine] | ≥ 50%
8 | C[C@@H](Nc1nc(Cl)nc2ncc(N3CCOCC3)cc12)c1cc(N)cc(C(F)(F)F)c1 [Example 84, (R)—N-(1-(3-amino-5-(trifluoromethyl)phenyl)ethyl)-2-chloro-6-morpholinopyrido[2,3-d]pyrimidin-4-amine] | ≥ 50%
9 | CCN1CCN(c2cc3c(N[C@H](C)c4cc(N)cc(C(F)(F)F)c4)cnnc3cn2)CC1 [Example 85, (R)—N-(1-(3-amino-5-(trifluoromethyl)phenyl)ethyl)-6-(4-ethylpiperazin-1-yl)pyrido[3,4-c]pyridazin-4-amine] | ≥ 50%
10 | CCN1CCN(c2cnc3c(C)nnc(N[C@H](C)c4cc(N)cc(C(F)(F)F)c4)c3c2)CC1 [Example 86, (R)—N-(1-(3-amino-5-(trifluoromethyl)phenyl)ethyl)-3-(4-ethylpiperazin-1-yl)-8-methylpyrido[2,3-d]pyridazin-5-amine] | ≥ 50%
11 | Cc1nnc(N[C@H](C)c2cc(N)cc(C(F)(F)F)c2)c2cc(N3CCOCC3)cnc12 [Example 87, (R)—N-(1-(3-amino-5-(trifluoromethyl)phenyl)ethyl)-8-methyl-3-morpholinopyrido[2,3-d]pyridazin-5-amine] | ≥ 50%
12 | CCN1CCN(c2cnc3cc(Cl)nc(N[C@H](C)c4cc(N)cc(C(F)(F)F)c4)c3c2)CC1 [Example 88, (R)—N-(1-(3-amino-5-(trifluoromethyl)phenyl)ethyl)-7-chloro-3-(4-ethylpiperazin-1-yl)-1,6-naphthyridin-5-amine] | ≥ 50%
13 | C[C@@H](Nc1nc(Cl)cc2ncc(N3CCOCC3)cc12)c1cc(N)cc(C(F)(F)F)c1 [Example 89, (R)—N-(1-(3-amino-5-(trifluoromethyl)phenyl)ethyl)-7-chloro-3-morpholino-1,6-naphthyridin-5-amine] | ≥ 50%

Source: patent publication US20240425501A1, “NOVEL BICYCLIC HETEROARYL DERIVATIVES AS SOS1:KRAS PROTEINPROTEIN INTERACTION INHIBITORS” (SATYARX PHARMA INNOVATIONS PVT LTD, priority 2021, published 2024)
